What all share (assay type): cell-based
For assay [1], the system named is Colo205-LUC-TCF/LEF M1 reporter cell line (Wnt pathway). As to the kind of experiment: Colo205-LUC-TCF/LEF M1 reporter gene (luciferase) inhibition. As to conditions: 4 hours incubation, luciferase readout. From the text:
Colo205 cell line (Cell Bank of Chinese Academy of Sciences, Cat #TCHu102) was purchased from the Cell Bank of Chinese Academy of Sciences. After expansion and subculture, in the exponential growth phase of the cells, transfection with lipo3000 liposome transfection with TCF/LEF transcription factors Driven luciferase reporter plasmid (Promega). […] The plasmid carries a resistance gene for resistance screening. Transfection was carried out in 10 cm culture dishes using conventional complete medium without resistance. After 2 days, the medium with resistance was replaced, and the culture was continued. After that, the resistant medium was replaced every 2 days, and the suspended cells were discarded. The original medium was centrifuged to remove cells and debris and retained as an adaptive medium. When the cells covered the culture dish, the cells were digested, counted, and passaged in a 96-well plate, so that the average number of cells contained in each well was 1.5/well, and the adaptive medium was used for passage. The rest of the cells were frozen. After subculture, culture for 4 hours to allow the cells to adhere to the wall, and then observe the number of cells in each well under a microscope. Wells with only 1 cell per well were labeled as monoclonal wells. Afterwards, normal culture was performed, and the culture medium was replaced every 2 days, and observed. There are holes where the monoclonal cells continue to grow in the early stage, and they are labeled twice, and can be replaced with normal resistant medium. When a monoclonal well was overgrown with a 96-well plate, it is digested and passaged to a 24-well culture plate. After the 24-well plate is overgrown, it is passaged to a 96-well plate and a 6-well plate. The cells in a 96-well plate are at least 6 wells, of which 3 wells were added with known Wnt inhibitors, and the other 3 wells were not treated. After 24 hours, the cells in the 96-well plate were added with a fluorescence detection reagent to detect the fluorescence intensity. Cell lines with fluorescent expression when not treated and decreased fluorescent light after inhibition were selected and further cultured. The Colo205-LUC-TCF/LEF-M1 cell line is one of the cell lines screened above. Its growth curve, cell shape, and cell growth state are similar to those of the original Colo205 cells, and the ratio of the fluorescent signals of the inhibitor-treated and untreated cells is the largest among all cell lines, and the ratio can reach 4-5 times when inhibited at 4 hours, which was completely suitable for the screening of Wnt inhibitors in the later stage.
The Colo205-LUC-TCF/LEF M1 cell line is a reporter tool cell stably transfected with the pGL4.49-LUC2-TCF/LEF vector. The β-catenin Wnt pathway is continuously activated. After adding the inhibitor, the Wnt pathway is inhibited. The expression of firefly luciferase regulated by the[…] cis-element decreased, and after adding the detection substrate, the detected light signal decreased accordingly, so as to detect the inhibitory effect of the compound.
To a 96-well cell culture plate, add 100 uL of the compound with a maximum concentration of 20 uM to each well, and make a 3-fold serial dilution of the compound concentration. Then 10,000 colo205 cells stably transfected with the reporter gene and 100 uL medium were inoculated into each well, and corresponding positive and negative control wells were made at the same time. Put the cells in a 5% CO2 incubator and incubate at 37° C. for 4 hours. After 4 hours, remove the culture medium, add 100 uL of reagent (Promega) containing the corresponding firefly luciferase substrate to each well, and measure the activity of luciferase reporter gene. Luminescence intensity was read with SpectraMax in full wavelength mode. […]

For another assay, the system named is Colo205. The assay can be described thus: Proliferation inhibition, Wnt mutant cell line Colo205. Particulars: Homo sapiens, COLO 205; Colo205, Wnt pathway-dependent, 96 hours; read-out: Antiproliferative IC50 Colo205. From the text: (§1) The cell lines used in the experiment are Colo205 and DU4475 cell lines whose Wnt pathway is continuously activated and whose proliferation is Wnt pathway-dependent; while the BELA and RKO cell lines, whose Wnt pathway is not activated under normal circumstances and the proliferation is independent of Wnt pathway, as control cell lines. It is Judged that the inhibitory effect of the compound of the present invention on Wnt-dependent proliferation is not caused by other non-specific toxicity.
(§2) Treat the Colo205, Du4475, HELA and RKO cell lines cultured in their respective mediums in the logarithmic growth phase, collect the cells and prepare a uniform cell suspension of known concentration, and then add it to the 96-well cell culture plate Cell suspension, so that each well contains 1000 cells. Put it into a 5% CO2 incubator and incubate at 37° C. for 20-24 h. On the second day, the fully dissolved, 3-fold serially diluted compound was added to each cell culture well, so that the final maximum concentration in the cell culture well was 20 uM, and the culture was continued for 96 hours. In this test, Promega's cell viability detection test is used for detection. The more the cells proliferate, the stronger the final signal intensity will be. The detection instrument is SpectraMax, full wavelength mode. The wells only added with DMSO were used as positive control wells, and the wells that were not inoculated with cells were used as negative control wells. […] The IC50 value of cell proliferation inhibition was used to evaluate the inhibitory effect of the compound on the Wnt pathway and the toxic effect on normal cells (Table 2).

Another assay deals with DU4475. The assay can be described thus: Proliferation inhibition, Wnt mutant cell line DU4475. Particulars: Homo sapiens, DU-4475; DU4475, Wnt pathway-dependent, 96 hours; read-out: Antiproliferative IC50 DU4475.
Description: as §1, §2

Another assay has as its system RKO. As to the kind of experiment: Proliferation inhibition, non-Wnt mutant control cell line RKO. As to conditions: Homo sapiens, Wnt-independent control cell line, 96 hours, read-out: Antiproliferative IC50 RKO.
Description: as §1, §2

In the case of `CO[C@H](C)[C@H]1C(=O)N2CCCc3nc(NCc4ccc(Oc5cnc(C(F)(F)F)nc5)nc4)nc(c32)N1C` [156 (W264)], the IC50 – broadly, the concentration that inhibits the measured activity by half – was 39 nM in assay [1], 27 nM with Colo205, 13 nM in the assay with DU4475 and greater than 10000 nM in the assay with RKO.
Taken in the same sequence, the figures for `COC[C@H]1C(=O)N2CCCc3nc(NCc4ccc(Oc5cnc(C(F)(F)F)nc5)nc4)nc(c32)N1C` [154 (W258)] were 30 nM, 37 nM, 30 nM and greater than 10000 nM.
On the same counts, the results for `CO[C@@H](C)[C@H]1C(=O)N2CCCc3nc(NCc4ccc(Oc5ccc(C(F)(F)F)nc5)nc4)nc(c32)N1C` [113 (W247), (S)-5-((S)-1-methoxyethyl)-4-methyl-2-(((6-((6-(trifluoromethyl)pyridin-3-yl)oxo)pyridin-3-yl)methyl)amino)-4,5,9,10-tetrahydro-6H,8H-pyrido[3,2,1-de]pteridin-6-one] are 31 nM, 48 nM, 64 nM and greater than 10000 nM.
On the same counts, the results for `O=C1[C@@H]2CCCN2c2nc(NCc3ccc(Oc4cnc(C(F)(F)F)nc4)nc3)nc3c2N1CCC3` [157 (W262)] are 24 nM, 31 nM, 18 nM and greater than 10000 nM.
As for `COC[C@H]1Cn2ccc3nc(NCc4ccc(OC5CCC(F)(F)CC5)nc4)nc(c32)N1C` [85 (W132)], the IC50 stood at 7 nM in assay [1], 8.3 nM with Colo205, 11.6 nM with DU4475 and 5500 nM in the assay with RKO.
On the same counts, the results for `CC(C)[C@H]1C(=O)N2CCCc3nc(NCc4ccc(Cn5ccc(C(F)(F)F)n5)nc4)nc(c32)N1C` [148 (W250)] are 31 nM, 27 nM, 13 nM and greater than 10000 nM.
Take `O=C1[C@@H]2COCCN2c2nc(NCc3ccc(Oc4ccc(C(F)(F)F)nc4)nc3)nc3c2N1CCC3` [124 (W278), (S)-2-(((6-((6-(trifluoromethyl)pyridin-3-yl)oxo)pyridin-3-yl)methyl)amino)-5,6,8a,9, 11,12-Hexahydro-4H,8H-[1,4]oxazino[3,4-h]pyrido[3,2,1-de]pteridin-8-one]: the half-inhibitory concentration (IC50) is 152 nM in the assay with Colo205, 51 nM in the assay on DU4475 and greater than 10000 nM in the assay with RKO.
On the same counts, the results for `CN1c2nc(NCc3ccc(Oc4cnc(C(F)(F)F)nc4)nc3)nc3c2N(CCC3)C(=O)[C@@H]1C(C)(C)O` [145 (W331)] are 43 nM, 53 nM and greater than 10000 nM.
`CN1c2nc(NCc3ccc(Oc4cnc(C(F)(F)F)nc4)nc3)nc3c2N(CCC3)C(=O)[C@@H]1c1cccc(F)c1` [174 (W314)]: the concentration for half-maximal inhibition (IC50) is 66 nM with Colo205, 37 nM in the assay on DU4475 and greater than 10000 nM in the assay with RKO.
Regarding `CN1c2nc(NCc3ccc(Oc4ccc(C(F)(F)F)nc4)nc3)nc3c2N(CCC3)C(=O)[C@@H]1C(C)(C)O` [122 (W272), (S)-5-(2-hydroxypropan-2-yl)-4-methyl-2-(((6-((6-(trifluoromethyl)pyridin-3-yl)oxo)pyridine-3-yl)methyl)amino)-4,5,9,10-tetrahydro-6H,8H-pyrido[3,2,1-de]pteridin-6-one], the IC50 was 87 nM in the assay on Colo205, 58 nM in the assay with DU4475 and greater than 10000 nM with RKO.
On to `C[C@H]1C(=O)N2CCCc3nc(NCc4ccc(OC5CCC(F)(F)CC5)nc4)nc(c32)N1C` [98 (W188)], for which the IC50 in the assay with Colo205 is 31 nM; in the assay on DU4475 it was 31 nM; with RKO it was greater than 10000 nM.
Take `CN1c2nc(NCc3ccc(Oc4cnc(C(F)(F)F)nc4)nc3)nc3c2N(CCC3)C(=O)[C@@H]1C1CCOCC1` [218 (W339)]: the IC50 in assay [1] is 30 nM; with Colo205, 17 nM; in the assay with RKO it was greater than 10000 nM.
As for `COCCC1C(=O)N2CCCc3nc(NCc4ccc(Oc5ccc(C(F)(F)F)nc5)nc4)nc(c32)N1C` (stereo not drawn) [213 (W355)], the IC50 in assay [1] was 69 nM; in the assay with Colo205 it was 53 nM; in the assay on RKO it was greater than 10000 nM.
As for `[2H]C([2H])([2H])OC[C@H]1C(=O)N2CCCc3nc(NCc4ccc(Oc5cnc(C(F)(F)F)nc5)nc4)nc(c32)N1C([2H])([2H])[2H]` [132 (W383), (S)-5-((methoxy-d3)methyl)-4-(methyl-d3)-2-(((6-((2-(trifluoromethyl)pyrimidin-5-yl)oxo)pyridin-3-yl)methyl)amino)-4,5,9,10-tetrahydro-6H,8H-pyrido[3,2,1-de]pteridin-6-one], the IC50 in assay [1] is 42 nM; in the assay on Colo205 it was 25 nM; with RKO, greater than 10000 nM.
As to `COCC[C@H]1C(=O)N2CCCc3nc(NCc4ccc(Oc5cnc(C(F)(F)F)nc5)nc4)nc(c32)N1C` [211 (W390)], the figures for the IC50 (in assay [1]; in the assay with Colo205; with RKO) were 43 nM, 23 nM and greater than 10000 nM, respectively.
In the case of `C[C@H]1C(=O)N2CCCc3nc(NCc4ccc(Cc5ccc(C(F)(F)F)cc5)nc4)nc(c32)N1C` [138 (W271), (S)-4,5-dimethyl-2-(((6-(4-(trifluoromethyl)benzyl)pyridin-3-yl)methyl)amino)-4,5,9, 10-tetrahydro-6H,8H-pyrido[3,2,1-de]pteridin-6-one], the IC50 in assay [1] is 25 nM; with Colo205 it was 48 nM; with DU4475 it was 40 nM; in the assay with RKO, greater than 10000 nM.
On to `CC(C)[C@H]1C(=O)N2CCCc3nc(NCc4ccc(Oc5cnc(C(F)(F)F)nc5)nc4)nc(c32)N1C` [159 (W259)], for which the IC50 in assay [1] was 2 nM; with Colo205 it was 4.6 nM; with DU4475 it was less than 0.5 nM; in the assay with RKO, greater than 10000 nM.
On the same counts, the results for `CN1c2nc(NCc3ccc(Oc4ccc(C(F)(F)F)nc4)nc3)nc3c2N(CCC3)C(=O)[C@@H]1C(F)(F)F` [185 (W310)] are 69 nM, 63 nM, 99 nM and greater than 10000 nM.

(Values after US12622917B2, “High-activity Wnt pathway inhibitor compound” (ADLAI NORTYE BIOPHARMA CO., LTD., priority 2020, dated 2026).)
